Structures can show the parent of a compound that is named as a salt. Where two headings read alike, the source gives them in different places.
Experiments:
[1] = biological target: T1, GST-ALK5 (TGF-beta receptor kinase) (Homo sapiens, UniProt P36897); test: In-vitro (enzyme) kinase flashplate assay: GST-ALK5 phosphorylation of GST-SMAD2 with 33P-ATP; type: biochemical; conditions: 384-well flashplate kinase assay, GST-ALK5 / GST-SMAD2, 33P-ATP, 30° C., 45 min; read-out: TβR activity (Example 50)
T1 sequence (P36897 34-503): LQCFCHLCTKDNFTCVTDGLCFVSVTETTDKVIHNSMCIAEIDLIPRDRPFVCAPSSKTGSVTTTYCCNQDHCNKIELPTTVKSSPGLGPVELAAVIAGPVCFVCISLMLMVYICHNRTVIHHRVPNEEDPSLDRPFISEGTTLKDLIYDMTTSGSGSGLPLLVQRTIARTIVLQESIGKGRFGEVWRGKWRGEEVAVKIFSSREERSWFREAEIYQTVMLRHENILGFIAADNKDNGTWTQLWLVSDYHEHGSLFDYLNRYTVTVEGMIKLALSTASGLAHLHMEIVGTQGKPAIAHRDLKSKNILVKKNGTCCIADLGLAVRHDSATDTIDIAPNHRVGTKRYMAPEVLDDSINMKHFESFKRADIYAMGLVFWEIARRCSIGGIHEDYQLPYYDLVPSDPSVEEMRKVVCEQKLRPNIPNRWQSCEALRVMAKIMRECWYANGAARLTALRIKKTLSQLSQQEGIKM
Protocol: In-vitro (Enzyme) Assay for Determination of the Efficacy of Inhibitors of the Inhibition of TGF-Beta-Mediated Effects
The kinase assay was carried out as 384-well flashplate assay. 31.2 nM of GST-ALK5, 439 nM of GST-SMAD2 and 3 mM of ATP (with 0.3 μCi of ^33P-ATP/well) were incubated in a total volume of 35 μl (20 mM of HEPES, 10 mM of MgCl2, 5 mM of MnCl2, 1 mM of DTT, 0.1% of BSA, pH 7.4) without or with test substance (5-10 concentrations) at 30° C. for 45 min. The reaction was stopped using 25 μl of 200 mM EDTA solution, filtered with suction at room temperature after 30 min, and the wells were washed with 3 times 100 μl of 0.9% NaCl solution. Radioactivity was measured in the TopCount. The IC50 values were calculated using RS1.

[2] = system: TGF-beta-induced phosphorylation of Smad2 (Ser465/467) and Smad3 (Ser423/425) in Mv1-Lu cells; test: Inhibition of Smad2/3 phosphorylation in Mv1Lu cells (PathScan Phospho-Smad2 ELISA); type: cell-based, mink Mustela vison; conditions: Neogale vison, read-out: TβR activity (Example 51)
Protocol: Inhibition of Smad2/3 Phosphorylation in Mv1 Lu Cells by TGF-Beta Receptor I Kinase Inhibitors
This assay was used to determine the inhibitory potency of compounds on TGF-beta-induced phosphorylation of Smad2 (Ser465/467) and Smad3 (Ser423/425). Mv1-Lu cells (lung epithelial cell line from mink Mustela vison; ATCC number: CCL-64) were seeded in DMEM (Invitrogen) supplemented with 10% fetal bovine serum (Pan Biotech) at a defined cell density in 24-well or 96-well plates (24-well plate: 1.5×10^5 cells per well; 96-well plate: 4×10^4 cells per well). Cell cultures were incubated in DMEM at 37° C. and 10% CO2. On the next day, the medium was replaced and cells were serum-starved for 16-20 hours. The following day, serial dilutions of compounds were added to the wells, pre-incubated for 1.5 hrs before recombinant TGF-beta 1 ligand (final concentration 5 ng/ml; R&D systems) was added. After one hour of ligand stimulation, lysates were prepared and analyzed using an enzyme-linked immunosorbent assay kit (PathScan Phospho-Smad2 Kit, Cell Signaling Technologies). The ELISA detects phosphorylated Smad2 as well as phosphorylated Smad3 with the phospho-specific antibody. TGF-beta stimulated cells and unstimulated cells served as positive and negative controls (100% and background control). The concentration of the vehicle DMSO was kept constant at 0.2% (v/v) in all wells. Dose-response relationships were fitted using curve fitting algorithms of the RS1 statistics software package (Brooks Automation Inc. RS/1- Statistical Tools Handbook. Release 6.2) to determine the concentration at which half-maximal inhibition (IC50) of Smad2/3 phosphorylation was achieved.

[3] = Mv1-Lu cells, TGF-beta 1 5 ng/ml, Phospho-Smad2/3 ELISA

| SMILES | IC50 [1] [µM] | IC50 [2, 3] [µM] | IC50 [2] [µM] |
| --- | --- | --- | --- |
| Fc1ccc(Cl)cc1-c1cc(-c2c[nH]c3cnccc23)c2cccnc2n1 [Compound 1, 2-(5-Chloro-2-fluoro-phenyl)-4-(1H-pyrrolo[2,3-c]pyridin-3-yl)-[1,8]naphthyridine] | < 1 | < 1 | – |
| Fc1ccc(Cl)cc1-c1cc(-c2cccc3cnccc23)c2cccnc2n1 [Compound 2, 2-(5-Chloro-2-fluoro-phenyl)-4-isoquinolin-5-yl-[1,8]naphthyridine] | < 1 | < 1 | – |
| Fc1ccc(C(F)(F)F)cc1-c1cc(-c2c[nH]c3cnccc23)c2cccnc2n1 [Compound 3, 2-(2-Fluoro-5-trifluoromethyl-phenyl)-4-(1H-pyrrolo[2,3-c]pyridin-3-yl)-[1,8]naphthyridine] | < 1 | < 1 | – |
| Nc1nccc2c(-c3cc(-c4cc(Cl)ccc4F)nc4ncccc34)cccc12 [Compound 4, 5-[2-(5-Chloro-2-fluoro-phenyl)-[1,8]naphthyridin-4-yl]-isoquinolin-1-ylamine] | < 1 | < 1 | – |
| COCCn1cc(-c2cc(-c3cc(Cl)ccc3F)nc3ncccc23)c2ccncc21 [Compound 5, 2-(5-Chloro-2-fluoro-phenyl)-4-[1-(2-methoxy-ethyl)-1H-pyrrolo[2,3-c]pyridin-3-yl]-[1,8]naphthyridine] | – | < 1 | – |
| Cc1cccc(-c2cc(-c3cccc4c(N)nccc34)c3cccnc3n2)n1 [Compound 6, 5-[2-(6-Methyl-pyridin-2-yl)-[1,8]naphthyridin-4-yl]-isoquinolin-1-ylamine] | < 1 | < 1 | – |
| Cc1cccc(-c2cc(-c3nccc4cnccc34)c3cccnc3n2)n1 [Compound 7, 2-(6-Methyl-pyridin-2-yl)-4-[2,6]naphthyridin-1-yl-[1,8]naphthyridine] | < 1 | 1 to 10 | – |
| Nc1nccc2c(-c3cc(-c4cc(C(F)(F)F)ccc4F)nc4ncccc34)cccc12 [Compound 8, 5-[2-(2-Fluoro-5-trifluoromethyl-phenyl)-[1,8]naphthyridin-4-yl]-isoquinolin-1-ylamine] | < 1 | < 1 | – |
| Nc1nccc2c(-c3cc(-c4ccccc4F)nc4ncccc34)cccc12 [Compound 9, 5-[2-(2-Fluoro-phenyl)-[1,8]naphthyridin-4-yl]-isoquinolin-1-ylamine] | < 1 | < 1 | – |
| Nc1nccc2c(-c3cc(-c4cc(F)ccc4F)nc4ncccc34)cccc12 [Compound 10, 5-[2-(2,5-Difluoro-phenyl)-[1,8]naphthyridin-4-yl]-isoquinolin-1-ylamine] | < 1 | < 1 | – |
| Nc1nccc2c(-c3cc(-c4cc(Cl)ccc4F)nc4ncccc34)nccc12 [Compound 11, 5-[2-(5-Chloro-2-fluoro-phenyl)-[1,8]naphthyridin-4-yl]-[2,6]naphthyridin-1-ylamine] | < 1 | < 1 | – |
| Fc1ccc(Cl)cc1-c1cc(-c2coc3cnccc23)c2cccnc2n1 [Compound 12, 2-(5-Chloro-2-fluoro-phenyl)-4-furo[2,3-c]pyridin-3-yl-[1,8]naphthyridine] | < 1 | < 1 | – |
| Nc1nccc2c(-c3cc(-c4cc(Cl)ccc4F)nc4ncccc34)coc12 [Compound 13, 3-[2-(5-Chloro-2-fluoro-phenyl)-[1,8]naphthyridin-4-yl]-furo[2,3-c]pyridin-7-ylamine] | < 1 | < 1 | – |
| Nc1nccc2c(-c3cc(-c4ccccc4F)nc4ncccc34)nccc12 [Compound 14, 5-[2-(2-Fluoro-phenyl)-[1,8]naphthyridin-4-yl]-[2,6]naphthyridin-1-ylamine] | < 1 | < 1 | – |
| Nc1ncnc2c(-c3cc(-c4ccccc4F)nc4ncccc34)cccc12 [Compound 15, 8-[2-(2-Fluoro-phenyl)-[1,8]naphthyridin-4-yl]-quinazolin-4-ylamine] | – | 1 to 10 | – |
| O=[N+]([O-])c1ccc(-c2cc(-c3ccccc3F)nc3ncccc23)c2ccncc12 [Compound 16, 2-(2-Fluoro-phenyl)-4-(8-nitro-isoquinolin-5-yl)-[1,8]naphthyridine] | – | < 1 | – |
| COc1ccc(-c2cc(-c3ccccc3F)nc3ncccc23)c2ccncc12 [Compound 17, 2-(2-Fluoro-phenyl)-4-(8-methoxy-isoquinolin-5-yl)-[1,8]naphthyridine] | < 1 | < 1 | – |
| Fc1ccccc1-c1cc(-c2ncnc3cnccc23)c2cccnc2n1 [Compound 18, 4-[2-(2-Fluoro-phenyl)-[1,8]naphthyridin-4-yl]-pyrido[3,4-d]pyrimidine] | 1 to 10 | > 10 | – |
| Fc1ccccc1-c1cc(-c2cccc3cnccc23)c2cccnc2n1 [Compound 19, 2-(2-Fluoro-phenyl)-4-isoquinolin-5-yl-[1,8]naphthyridine] | < 1 | < 1 | – |
| Nc1nccc2c(-c3cc(-c4cc(F)ccc4F)nc4ncccc34)nccc12 [Compound 20, 5-[2-(2,5-Difluoro-phenyl)-[1,8]naphthyridin-4-yl]-[2,6]naphthyridin-1-ylamine hydrochloride] | < 1 | – | < 1 |
| Cc1cccc(-c2cc(-c3nccc4c(N)nccc34)c3cccnc3n2)n1 [Compound 21, 5-[2-(6-Methyl-pyridin-2-yl)-[1,8]naphthyridin-4-yl]-[2,6]naphthyridin-1-ylamine hydrochloride] | < 1 | – | < 1 |
| Nc1ccc(-c2cc(-c3cc(Cl)ccc3F)nc3ncccc23)c2ccncc12 [Compound 22, 5-[2-(5-Chloro-2-fluoro-phenyl)-[1,8]naphthyridin-4-yl]-isoquinolin-8-ylamine hydrochloride] | < 1 | – | < 1 |
| Fc1ccccc1-c1cc(-c2nccc3cnccc23)c2cccnc2n1 [Compound 23, 2-(2-Fluoro-phenyl)-4-[2,6]naphthyridin-1-yl-[1,8]naphthyridine] | 1 to 10 | 1 to 10 | – |
| Fc1ccc(Cl)cc1-c1cc(-c2ncnc3cnccc23)c2cccnc2n1 [Compound 24, 4-[2-(5-Chloro-2-fluoro-phenyl)-[1,8]naphthyridin-4-yl]-pyrido[3,4-d]pyrimidine] | < 1 | 1 to 10 | – |
| Nc1ncnc2c(-c3cc(-c4ccccc4F)nc4ncccc34)nccc12 [Compound 36, 8-[2-(2-Fluoro-phenyl)-[1,8]naphthyridin-4-yl]-pyrido[3,4-d]pyrimidin-4-ylamine] | – | > 10 | – |
| OCCOc1ccc(-c2cc(-c3ccccc3F)nc3ncccc23)c2ccncc12 [Compound 39, 2-{5-[2-(2-Fluoro-phenyl)-[1,8]naphthyridin-4-yl]-isoquinolin-8-yloxy}-ethanol] | – | < 1 | – |
| Nc1ccc(-c2cc(-c3ccccc3F)nc3ncccc23)c2ccncc12 [Compound 41, 5-[2-(2-Fluoro-phenyl)-[1,8]naphthyridin-4-yl]-isoquinolin-8-ylamine] | – | < 1 | – |
| Nc1cc2c(-c3cc(-c4cc(Cl)ccc4F)nc4ncccc34)cccc2cn1 [Compound 49, 5-[2-(5-Chloro-2-fluoro-phenyl)-[1,8]naphthyridin-4-yl]-isoquinolin-3-ylamine] | – | > 10 | – |
| CC(=O)Nc1nccc2c(-c3cc(-c4ccccc4F)nc4ncccc34)nccc12 [Compound 69, N-{5-[2-(2-Fluoro-phenyl)-[1,8]naphthyridin-4-yl]-[2,6]naphthyridin-1-yl}-acetamide] | < 1 | – | – |

— patent US8791113B2, “2,4-diaryl-substituted [1,8] naphthyridines as kinase inhibitors for use against cancer” (Merck Patent GmbH, priority 2010, dated 2014)
